Measured values reported in ChEMBL document CHEMBL1138133, “6-Acylamino-2-amino-4-methylquinolines as potent melanin-concentrating hormone 1 receptor antagonists: structure-activity exploration of eastern and western parts” (Bioorg Med Chem Lett, 2006).

Tests used:
[1] = biological target: T1, Melanin-concentrating hormone receptor 1 (Homo sapiens, UniProt Q99705); assay: Inhibition of human MCH1 receptor by SPA assay
[2] = biological target: T1, Melanin-concentrating hormone receptor 1; assay: […] human MCH1 receptor expressed in CHO cell by IP3 assay; format: cell-based
[3] = biological target: T1, Melanin-concentrating hormone receptor 1; assay: Displacement of [125I]MCH from human MCH1 receptor expressed in CHO cell by WC assay; format: cell-based

T1 sequence (Q99705 whole entry): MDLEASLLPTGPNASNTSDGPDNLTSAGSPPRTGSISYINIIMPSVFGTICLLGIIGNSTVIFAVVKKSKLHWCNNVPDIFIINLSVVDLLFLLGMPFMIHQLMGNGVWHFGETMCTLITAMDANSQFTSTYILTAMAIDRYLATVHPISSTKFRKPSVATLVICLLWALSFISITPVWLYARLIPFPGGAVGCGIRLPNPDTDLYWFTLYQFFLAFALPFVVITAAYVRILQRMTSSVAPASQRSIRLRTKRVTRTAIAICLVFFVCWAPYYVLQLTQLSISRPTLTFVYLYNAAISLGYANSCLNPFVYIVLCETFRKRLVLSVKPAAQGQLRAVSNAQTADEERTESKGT

| IC50 [1] [nM] | IC50 [2] [nM] | IC50 [3] [nM] | SMILES |
| --- | --- | --- | --- |
| 2540 | – | – | Cc1cc(N(C)CCN(C)C)nc2ccc(NC(=O)/C=C/c3ccccc3Cl)cc12 |
| 20 | 244 | 3.7 | Cc1cc(N2CCCN(C)CC2)nc2ccc(NC(=O)COc3ccc(OC(F)(F)F)cc3)cc12 |
| 48 | 478 | 17 | Cc1ccc(/C=C/C(=O)Nc2ccc3nc(N(C)CCN(C)C)cc(C)c3c2)cc1 |
| – | – | 10 | Cc1cc(N(C)CCN(C)C)nc2ccc(NC(=O)c3ccc(-c4ccc(C(F)(F)F)cc4)cc3)cc12 |
| 87 | – | 44 | Cc1cc(N2C[C@@H](C)N[C@@H](C)C2)nc2ccc(NC(=O)COc3ccc(OC(F)(F)F)cc3)cc12 |
| > 10000 | – | – | Cc1cc(N(C)CCN(C)C)nc2ccc(NC(=O)CCc3ccccc3)cc12 |
| 423 | 393 | 23 | Cc1cc(N(C)CCN(C)C)nc2ccc(NC(=O)C3CCC(c4ccc(Cl)cc4)CC3)cc12 (stereo not drawn) |
| 210 | – | – | Cc1cc(N(C)CCN(C)C)nc2ccc(NC(=O)c3ccc(Oc4ccccc4)cc3)cc12 |
| 13 | – | 3.7 | Cc1cc(N2CCN[C@@H](C)C2)nc2ccc(NC(=O)COc3ccc(OC(F)(F)F)cc3)cc12 |
| 15 | – | 3.2 | CCN(CC)CCNc1cc(C)c2cc(NC(=O)COc3ccc(OC(F)(F)F)cc3)ccc2n1 |
| 16 | – | 4.7 | Cc1cc(NCC(C)(C)CN(C)C)nc2ccc(NC(=O)COc3ccc(OC(F)(F)F)cc3)cc12 |
| 125 | – | – | Cc1cc(N(C)CCN(C)C)nc2ccc(NC(=O)CNc3ccc(Cl)cc3Cl)cc12 |
| > 10000 | – | – | Cc1cc(N(C)CCN(C)C)nc2ccc(NC(=O)COc3ccccc3)cc12 |
| 6970 | – | – | Cc1cc(N(C)CCN(C)C)nc2ccc(NC(=O)/C=C/c3ccccc3)cc12 |
| 9460 | – | – | C/C(=C\c1ccccc1)C(=O)Nc1ccc2nc(N(C)CCN(C)C)cc(C)c2c1 |
| 3280 | – | – | Cc1cc(N(C)CCN(C)C)nc2ccc(NC(=O)Cc3ccc(-c4ccccc4)cc3)cc12 |
| 40 | 91 | 13 | Cc1cc(NC2CCN(Cc3ccccc3)CC2)nc2ccc(NC(=O)COc3ccc(OC(F)(F)F)cc3)cc12 |
| 568 | – | – | Cc1oc(-c2ccccc2)nc1CC(=O)Nc1ccc2nc(N(C)CCN(C)C)cc(C)c2c1 |

| IC50 [1] [nM] | IC50 [2] [nM] | IC50 [3] [nM] | SMILES |
| --- | --- | --- | --- |
| 271 | – | – | Cc1cc(N(C)CCN(C)C)nc2ccc(NC(=O)NCc3ccc(Br)cc3)cc12 |
| 18 | 100 | 4.1 | Cc1cc(N2CCN[C@H](C)C2)nc2ccc(NC(=O)COc3ccc(OC(F)(F)F)cc3)cc12 |
| 105 | – | – | Cc1cc(N(C)CCN(C)C)nc2ccc(NC(=O)c3ccc(Oc4ccccc4)nc3)cc12 |
| 9.6 | – | 1.3 | Cc1cc(NCCN2CCOCC2)nc2ccc(NC(=O)COc3ccc(OC(F)(F)F)cc3)cc12 |
| 40 | – | 14 | Cc1cc(N(C)CCN(C)C)nc2ccc(NC(=O)CCc3ccc(OC(F)(F)F)cc3)cc12 |
| 5 | – | 1.7 | Cc1cc(N2CCN(CCO)CC2)nc2ccc(NC(=O)COc3ccc(OC(F)(F)F)cc3)cc12 |
| 2100 | – | – | Cc1cc(N(C)CCN(C)C)nc2ccc(NC(=O)c3cc4ccccc4s3)cc12 |
| 83 | 807 | 33 | Cc1cc(N(C)CCN(C)C)nc2ccc(NC(=O)COc3ccc(Cl)cc3)cc12 |
| 18 | 31 | 2.3 | Cc1cc(N(C)CCN(C)C)nc2ccc(NC(=O)COc3ccc(OC(F)(F)F)cc3)cc12 |
| 18 | – | 5.3 | Cc1cc(NCCN(C)C)nc2ccc(NC(=O)COc3ccc(OC(F)(F)F)cc3)cc12 |
| 2760 | – | – | Cc1cc(N(C)CCN(C)C)nc2ccc(NC(=O)c3ccc(OC(F)(F)F)cc3)cc12 |
| 162 | – | – | Cc1cc(N(C)CCN(C)C)nc2ccc(NC(=O)CCc3nc(-c4ccccc4)c(-c4ccccc4)o3)cc12 |
| – | – | 7.1 | Cc1cc(NCCN(C(C)C)C(C)C)nc2ccc(NC(=O)COc3ccc(OC(F)(F)F)cc3)cc12 |
| 5.3 | 33 | 0.91 | Cc1cc(NCCN2CCCCC2)nc2ccc(NC(=O)COc3ccc(OC(F)(F)F)cc3)cc12 |
| – | – | 2 | Cc1cc(N2CCCNCC2)nc2ccc(NC(=O)COc3ccc(OC(F)(F)F)cc3)cc12 |
| 42 | 25 | 5.7 | Cc1cc(N(C)CCN(C)C)nc2ccc(NC(=O)c3ccc(-c4ccccc4)cc3)cc12 |
| 20 | – | 3.4 | Cc1cc(N2C[C@@H](C)NC[C@@H]2C)nc2ccc(NC(=O)COc3ccc(OC(F)(F)F)cc3)cc12 (racemic) |
| > 10000 | – | – | Cc1cc(N(C)CCN(C)C)nc2ccc(NC(=O)C3CC3c3ccccc3)cc12 (racemic) |
